Patent US11014904B2, “1,2,4-triazine-3-amine derivative, preparation method therefor, and use thereof in medicine” (Jiangsu Hengrui Medicine Co., Ltd., priority 2017, dated 2021)

Assay: Pharmacokinetics assay in mice
Type: in vivo
Details: mouse, po, C57 mice (female), intragastric, 2 mg/kg, plasma; for Vd/F: read-out: Apparent distribution volume Vz/F; for AUC: read-out: Area under curve AUC; for CL/F: read-out: Clearance CLz/F; for half-life: read-out: Half-life T½ (converted); for Cmax: read-out: Plasma concentration Cmax; for MRT: read-out: Residence time MRT
Protocol: Mice were used as test animals. The drug concentration in plasma at different time points was determined by LC/MS/MS method after intragastrical administration of the compounds of Examples 2, 3, 17, 18, 19, 20, 31 and 44 to mice. The pharmacokinetic behavior of the compounds of the present invention was studied and evaluated in mice.
Seventy-two C57 mice (female) were purchased from Shanghai Jiesijie Laboratory Animal Co., LTD, with Certificate No.: SCXK (Shanghai) 2013-0006, and equally divided into 8 groups (9 mice per group).
A certain amount of the test compound was weighed, and added with 5% by volume of DMSO, 5% by volume of tween 80 and 90% by volume of normal saline to prepare a 0.1 mg/mL colorless, clear and transparent solution.
After an overnight fast, C57 mice were administered intragastrically the test compounds at an administration dosage of 2.0 mg/kg and an administration volume of 0.2 mL/10 g.
The mice were intragastrically administered the compounds of Examples 2, 3, 17, 18, 19, 20, 31 and 44. 0.1 ml of blood was taken before administration and at 0.5, 1.0, 2.0, 4.0, 6.0, 8.0, 11.0 and 24.0 hours after administration. The samples were stored in heparinized tubes, and centrifuged for 10 minutes at 3,500 rpm to separate the blood plasma. The plasma samples were stored at −20° C.
The content of the test compounds in the plasma of mice after intragastrical administration of the test compounds at different concentrations was determined: 25 μL of mouse plasma at each time after administration were taken, added with 50 μL of the internal standard solution of camptothecin (100 ng/mL) and 200 μL of acetonitrile, vortex-mixed for 5 minutes, and centrifuged for 10 minutes (4000 rpm). 5 μL of the supernatant were taken from the plasma samples for LC/MS/MS analysis.

| SMILES | Vd/F | AUC | CL/F | half-life | Cmax | MRT |
| --- | --- | --- | --- | --- | --- | --- |
| Nc1nnc(-c2cc(F)c3ncccc3c2)c(-c2ccccc2)n1 [Example 2, 6-(8-Fluoroquinolin-6-yl)-5-phenyl-1,2,4-triazin-3-amine] | 14.7 L/kg | 412 ng·h/mL | 78.3 mL/min/kg | 2.17 h | 441 ng/mL | 1.79 h |
| Nc1nnc(-c2ccc3ncccc3c2)c(-c2ccccc2)n1 [Example 3, 5-Phenyl-6-(quinolin-6-yl)-1,2,4-triazin-3-amine] | 15.7 L/kg | 419 ng·h/mL | 78.6 mL/min/kg | 2.3 h | 395 ng/mL | 1.61 h |
| Cc1ccnc2c(F)cc(-c3nnc(N)nc3-c3ccccc3F)cc12 [Example 31, 6-(8-Fluoro-4-methylquinolin-6-yl)-5-(2-fluorophenyl)-1,2,4-triazin-3-amine] | 16.7 L/kg | 339 ng·h/mL | 95 mL/min/kg | 2.02 h | 302 ng/mL | 2.02 h |
| CCc1ccnc2ccc(-c3nnc(N)nc3-c3ccc(F)cc3)cc12 [Example 44, 6-(4-Ethylquinolin-6-yl)-5-(4-fluorophenyl)-1,2,4-triazin-3-amine] | 4.79 L/kg | 501 ng·h/mL | 65 mL/min/kg | 0.85 h | 720 ng/mL | 0.85 h |

Now from value to compound:

| Vd/F | AUC | CL/F | half-life | Cmax | MRT | SMILES |
| --- | --- | --- | --- | --- | --- | --- |
| 15.3 L/kg | 204 ng·h/mL | 162 mL/min/kg | 1.09 h | 265 ng/mL | 1.17 h | Cc1ccnc2ccc(-c3nnc(N)nc3-c3ccccc3F)cc12 [Example 17, 5-(2-Fluorophenyl)-6-(4-methylquinolin-6-yl)-1,2,4-triazin-3-amine] |
| 9.01 L/kg | 495 ng·h/mL | 65 mL/min/kg | 1.59 h | 402 ng/mL | 1.43 h | Cc1ccnc2ccc(-c3nnc(N)nc3-c3ccc(F)cc3)cc12 [Example 18, 5-(4-Fluorophenyl)-6-(4-methylquinolin-6-yl)-1,2,4-triazin-3-amine] |
| 1.57 L/kg | 5030 ng·h/mL | 6.61 mL/min/kg | 2.74 h | 1960 ng/mL | 3.13 h | Cc1ncnc2ccc(-c3nnc(N)nc3-c3ccc(F)cc3)cc12 [Example 19, 5-(4-Fluorophenyl)-6-(4-methylquinazolin-6-yl)-1,2,4-triazin-3-amine] |
| 3.05 L/kg | 1170 ng·h/mL | 28 mL/min/kg | 1.24 h | 866 ng/mL | 1.41 h | Cc1ccnc2c(F)cc(-c3nnc(N)nc3-c3ccc(F)cc3)cc12 [Example 20, 6-(8-Fluoro-4-methylquinolin-6-yl)-5-(4-fluorophenyl)-1,2,4-triazin-3-amine] |
